This note sets out measurements from publication PMC12195740, “Discovery of Novel Imidazothiazole-Based Hydroxamic Acid Derivatives as Potent Indoleamine 2,3-Dioxygenase 1 and Histone Deacetylase 6 Dual Inhibitors” (Molecules, 2025).

A word on the IC50: it is the point on the concentration scale where inhibition reaches its midpoint. The term inhibition denotes the share of the control response that was lost under treatment.

One series deals with T1, rhIDO1 (Homo sapiens, UniProt P14902).
T1 construct: purchased
The series can be described thus: IDO1 inhibition assay. Particulars: means ± S.D. of three independent experiments. The format is biochemical. The method, then:
Section S1. Biological assays […]
Section S 1.2 IDO1 inhibition assays
IDO1 inhibition assays were carried out according to the manufacturers’ procedures, as described previously. The standard assay mixture (100 μL) contained 50 mM of potassium phosphate buffer (pH = 6.5), 10 mM ascorbate, 10 μM methylene blue, 100 μg/mL catalase, 1 mM L-tryptophan and 10 μg/mL of rhIDO1. The plate was incubated at 37 °C in a dark environment, and reactions were terminated after 60 min by the addition of 50 μL of fluorogenic developer solution and further incubated at 45 °C in dark for 3 h. Then, the plate was allowed to cool to room temperature for at least 1 h. After centrifugation at 1500g for 5 min at 20 °C, the fluorescence […]
M1000 Pro, Tecan US, Morrisville, NC) in an end-point mode. […]

For another series, the target named is HDAC4 (Homo sapiens, UniProt P56524). The series can be described thus: HDAC isoform selectivity assay, HDAC4. Format: biochemical. Particulars: read-out: HDAC4 % inhibition rate at 10 μM.
The target in a further series is T2, HDAC11 (Homo sapiens, UniProt Q96DB2).
T2 sequence (Q96DB2 1-347): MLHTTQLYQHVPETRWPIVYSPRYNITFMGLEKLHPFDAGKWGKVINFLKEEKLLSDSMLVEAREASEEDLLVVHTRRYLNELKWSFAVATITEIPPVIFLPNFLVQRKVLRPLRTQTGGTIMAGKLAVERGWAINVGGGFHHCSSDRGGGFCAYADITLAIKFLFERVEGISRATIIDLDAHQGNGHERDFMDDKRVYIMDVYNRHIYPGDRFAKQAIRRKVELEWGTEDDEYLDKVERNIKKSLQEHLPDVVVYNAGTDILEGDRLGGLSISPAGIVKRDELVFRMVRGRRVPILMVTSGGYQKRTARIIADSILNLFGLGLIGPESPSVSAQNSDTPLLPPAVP
Description: HDAC isoform selectivity assay, HDAC11. Format: biochemical. The conditions noted are these: read-out: HDAC11 % inhibition rate at 10 μM.

A short description of series [1]: General toxicity in CT26 tumor-bearing BALB/c mice (body weight, H&E of organs). Format: in vivo. The conditions noted are these: 150 mg/kg ip every 3 days for 21 days. The method, then: After that, fixed cells were washed with PBS. Then, cells were isolated by centrifugation and stained with propidium iodide (KeyGEN BioTECH, China) for 30 min. The samples were measured using flow cytometry and analyzed by Flowjo software.
Section S 1.6 Western blot assay […]
earlier were obtained by lysing the cells in ice-cold RIPA buffer with protease and phosphatase inhibitor and stored at -20°C for future use. The protein concentrations were quantified by the Bradford method (Bio-Rad) using a Multimode Varioscan instrument (Thermo Fischer Scientific). […]
and transferred to a polyvinylidene difluoride (PVDF) membrane (Amersham Biosciences). After the membrane was blocked at room temperature for 2 h in blocking solution, primary antibody was added and incubated at 4°C overnight. Ac-α-tubulin, Ac-histone H3 and GAPDH antibodies were purchased from Imgenex, USA. After three TBST washes, the membrane was incubated with corresponding horseradish peroxidase-labeled secondary antibody (1:2,000) (Santa Cruz) at room temperature for 1 h. Membranes were washed with TBST three times for 15 min and the protein bands were detected with chemiluminescence reagent (Thermo Fischer Scientific). The X-ray films were developed using developer and fixed with fixer solution.
Section S 1.7 In vivo antitumor efficacy […]
line CT-26 in BALB/c mice as described previously. Five-week-old male BALB/c mice were purchased from the Shanghai Ling Chang biotechnology company (China), and tumors were induced through subcutaneous injection of 1 × 10^7 cells in 100 µL of sterile PBS into the dorsal region. The animals were divided into four groups, starting on the second day. When the tumors reached a volume of 50−100 mm3 in all mice, the first group was administered intraperitoneally with an equivalent volume of 5% dextrose as the vehicle control. The second group was treated with […]
treated with complex 10e at doses of 150 mg/kg body weight once every 3 days for 3 weeks, respectively. All compounds were dissolved in vehicle. Tumor volumes and body weights were […]

In a further series the test system is MCF-7 cells. Description: Cell viability (MTT) assay, MCF-7. The conditions noted are these: Homo sapiens, MCF7, 48 h, read-out: Antiproliferative IC50, MCF-7.
The subject of the next series is MDA-MB-231 cells. The series can be described thus: Cell viability (MTT) assay, MDA-MB-231. Particulars: Homo sapiens, MDA-MB-231, 48 h, read-out: Antiproliferative IC50, MDA-MB-231.

HDAC4, sequence (P56524 whole entry, species assumed, canonical isoform): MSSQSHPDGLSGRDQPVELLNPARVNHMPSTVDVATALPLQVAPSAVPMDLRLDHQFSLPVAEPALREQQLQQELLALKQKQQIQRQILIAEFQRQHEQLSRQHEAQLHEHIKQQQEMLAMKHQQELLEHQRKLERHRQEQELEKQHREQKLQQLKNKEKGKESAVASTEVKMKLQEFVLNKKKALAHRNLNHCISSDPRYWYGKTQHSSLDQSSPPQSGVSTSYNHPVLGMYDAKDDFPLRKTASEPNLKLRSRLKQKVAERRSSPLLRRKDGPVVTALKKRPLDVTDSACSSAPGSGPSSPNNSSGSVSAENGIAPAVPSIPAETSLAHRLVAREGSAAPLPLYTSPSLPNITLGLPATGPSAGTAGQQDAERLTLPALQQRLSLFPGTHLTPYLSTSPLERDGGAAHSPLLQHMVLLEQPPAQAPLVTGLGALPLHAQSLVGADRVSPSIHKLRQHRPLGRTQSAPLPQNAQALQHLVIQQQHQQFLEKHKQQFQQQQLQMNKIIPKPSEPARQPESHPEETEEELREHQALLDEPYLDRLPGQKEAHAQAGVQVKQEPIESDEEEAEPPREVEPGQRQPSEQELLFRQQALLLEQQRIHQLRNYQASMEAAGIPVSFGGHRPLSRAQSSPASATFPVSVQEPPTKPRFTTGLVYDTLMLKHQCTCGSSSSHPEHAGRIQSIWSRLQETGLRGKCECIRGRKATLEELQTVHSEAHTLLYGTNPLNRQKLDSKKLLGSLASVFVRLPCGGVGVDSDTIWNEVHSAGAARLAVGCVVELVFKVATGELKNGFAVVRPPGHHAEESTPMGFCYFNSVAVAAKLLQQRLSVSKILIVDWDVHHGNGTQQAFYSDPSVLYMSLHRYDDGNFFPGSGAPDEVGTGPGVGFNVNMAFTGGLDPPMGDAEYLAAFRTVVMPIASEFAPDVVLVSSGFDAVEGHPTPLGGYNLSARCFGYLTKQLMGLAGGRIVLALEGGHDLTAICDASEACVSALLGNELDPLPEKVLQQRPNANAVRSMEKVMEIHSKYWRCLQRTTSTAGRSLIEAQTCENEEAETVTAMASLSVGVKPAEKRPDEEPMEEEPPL
T1 sequence (P14902 whole entry): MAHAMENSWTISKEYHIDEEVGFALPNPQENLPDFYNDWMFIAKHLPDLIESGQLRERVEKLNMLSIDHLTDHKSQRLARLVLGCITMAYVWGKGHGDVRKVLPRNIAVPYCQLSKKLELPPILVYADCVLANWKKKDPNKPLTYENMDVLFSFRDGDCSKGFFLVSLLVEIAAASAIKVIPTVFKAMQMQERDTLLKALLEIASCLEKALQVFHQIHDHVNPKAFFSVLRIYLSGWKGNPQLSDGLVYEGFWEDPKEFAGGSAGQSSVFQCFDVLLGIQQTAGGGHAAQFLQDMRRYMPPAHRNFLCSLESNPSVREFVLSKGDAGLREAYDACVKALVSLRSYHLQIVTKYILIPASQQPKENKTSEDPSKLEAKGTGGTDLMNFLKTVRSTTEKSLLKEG
Description for MCF-7 cells: Section S 1.3 Cell viability assays
(§1) Cell Bank at the Chinese Academy of Sciences.
(§2) DMEM and FBS were obtained from Gibco-Thermo (BRL Co. Ltd., USA).
(§3) another 48 h. The cells were stained with 10 μl of MTT at incubator for approximately 4 h. The medium was discarded and replaced by 100 mL DMSO. The O.D. value was read at 570/630 nm with a spectrophotometer.
Description for MDA-MB-231 cells: Section S 1.3 Cell viability assays
as §1, §2, §3

Regarding `O=C(CCCCCCNc1ccc(NC(=O)c2cnc3scc(-c4ccc(Br)cc4)n23)cc1)NO` [Compound 10e, 3-(4-Bromophenyl)-N-{4-[(7-(hydroxyamino)-7-oxoheptyl)amino]phenyl}imidazo[2,1-b]thiazole-5-carboxamide], the IC50 is 0.086 ± 0.02 µM against rhIDO1, 36.5 ± 5.45 µM with MCF-7 cells and 43.7 ± 1.89 µM with MDA-MB-231 cells. For the same molecule, the inhibition at 10 µM was found to be 9.58% on HDAC4 and 24.4% at HDAC11. Besides, the “histology of liver, spleen, and kidney (H&E staining)” value in series [1] is reported as “no obvious histological differences”. Further, in series [1] (versus vehicle group), the “influence on body weight of the mice” value is reported as “no obvious influence”.
